Values after ≈ are worked out from the molar mass of the structure shown. One block for each compound: values may come before it.
What was measured:
Assay in all cases: ≥ marks a high value that may be exact or a test limit, other limits are often not marked, values filed in µg/mL are converted to µM
[1] = test system: Enterococcus faecalis ATCC 51575
[2] = test system: Staphylococcus epidermidis KCTC 1917
[3] = test system: Staphylococcus aureus KCCM 40510
[4] = test system: Bacillus subtilis KCTC 3068
[5] = test system: Pseudomonas aeruginosa CCARM 2180
[6] = test system: Salmonella typhimurium KCTC 1926
[7] = test system: Acinetobacter baumannii ATCC BAA-1605
[8] = test system: Enterococcus faecalis KCCM 11814
[9] = test system: Escherichia coli KCTC 1682
[10] = test system: Acinetobacter baumannii KCCM 1053
[11] = test system: Staphylococcus aureus KCTC 1621
[12] = test system: Pseudomonas aeruginosa KCTC 1637
[13] = test system: Staphylococcus aureus 3518
[14] = test system: Staphylococcus aureus CCARM 3709
[15] = test system: Pseudomonas aeruginosa 3241
[16] = test system: Pseudomonas aeruginosa CCARM 2073
[17] = test system: Escherichia coli ATCC 25922
[18] = test system: Staphylococcus aureus ATCC 25923
[19] = test system: Pseudomonas aeruginosa ATCC 15692
[20] = test system: Staphylococcus aureus 3399
[21] = test system: Listeria monocytogenes KCTC 19111
[22] = test system: Pseudomonas aeruginosa CCARM 2075
[23] = test system: Pseudomonas aeruginosa 4007
[24] = test system: Staphylococcus aureus CCARM 3125
Escherichia coli C25 = test system: Escherichia coli C25
[25] = test system: Vibrio cholerae MTCC 3904
[26] = test system: Stenotrophomonas maltophilia MTCC 1890
[27] = test system: Bordetella bronchiseptica MTCC 6837
[28] = test system: Escherichia coli K12 MG1655
[29] = test system: Pseudomonas aeruginosa MTCC 3542
[30] = test system: Citrobacter koseri MTCC 1657
[31] = test system: Haemophilus influenzae MTCC 621
[32] = test system: Klebsiella oxytoca MTCC 2275
[33] = test system: Staphylococcus aureus MTCC 3160
[34] = test system: Alkalihalobacillus alcalophilus MTCC 860
[35] = test system: Shigella boydii MTCC 11947
[36] = test system: Alcaligenes faecalis MTCC 1937
[37] = test system: Klebsiella aerogenes MTCC 111
[38] = test system: Klebsiella pneumoniae MTCC 7407
[39] = test system: Acinetobacter baumannii MTCC 9829
[40] = test system: Proteus mirabilis MTCC 3158
[41] = test system: Salmonella enterica subsp. enterica serovar Typhimurium ATCC 14028
[42] = test system: Proteus vulgaris MTCC 1771
[43] = test system: Salmonella enterica MTCC 9844
[44] = test system: Corynebacterium glutamicum MTCC 2679
[45] = test system: Staphylococcus haemolyticus MTCC 3383
[46] = test system: Pluralibacter gergoviae MTCC 3826
[47] = test system: Shigella flexneri MTCC 1457
[48] = test system: Enterococcus faecalis MTCC 439
[49] = test system: Citrobacter freundii MTCC 1658

MIC [1]: ≥ 64 µM | MIC [2]: ≥ 32 µM | MIC [3]: ≥ 64 µM | MIC [4]: ≥ 64 µM | MIC [5]: ≥ 64 µM | MIC [6]: ≥ 64 µM | MIC [7]: ≥ 64 µM | MIC [8]: ≥ 64 µM | MIC [9]: 8 µM (≈ 11 µg/mL) | MIC [10]: ≥ 64 µM | MIC [11]: ≥ 64 µM | MIC [12]: ≥ 64 µM
SMILES: CC[C@H](C)[C@@H]1NC(=O)[C@H](CCCCN)NC(=O)[C@@H](NC(=O)[C@H](CC(C)C)NC(=O)[C@@H](N)CCCCN)CSSC[C@@H](C(=O)N[C@@H](CCCCN)C(=O)O)NC(=O)[C@H](C(C)C)NC(=O)[C@H](CCCCN)NC(=O)[C@H]([C@@H](C)CC)NC(=O)[C@H](C(C)C)NC(=O)[C@H](C(C)C)NC1=O [KLCKIVVIKVCK]

MIC [13]: 2 µM (≈ 3.37 µg/mL) | MIC [14]: 2 µM (≈ 3.37 µg/mL) | MIC [15]: 2 µM (≈ 3.37 µg/mL) | MIC [2]: 1 µM (≈ 1.68 µg/mL) | MIC [16]: 2 µM (≈ 3.37 µg/mL) | MIC [17]: 1 µM (≈ 1.68 µg/mL) | MIC [18]: 2 µM (≈ 3.37 µg/mL) | MIC [6]: 2 µM (≈ 3.37 µg/mL) | MIC [19]: 2 µM (≈ 3.37 µg/mL) | MIC [20]: 2 µM (≈ 3.37 µg/mL) | MIC [21]: 2 µM (≈ 3.37 µg/mL) | MIC [22]: 1 µM (≈ 1.68 µg/mL) | MIC [23]: 2 µM (≈ 3.37 µg/mL) | MIC [24]: 2 µM (≈ 3.37 µg/mL)
SMILES: CC(C)C[C@H](NC(=O)[C@H](Cc1c[nH]c2ccccc12)NC(=O)[C@H](CCCCN)NC(=O)[C@H](CCCCN)NC(=O)[C@H](CC(C)C)NC(=O)[C@H](Cc1c[nH]c2ccccc12)NC(=O)[C@H](CCCCN)NC(=O)[C@H](CCCCN)NC(=O)[C@H](CC(C)C)NC(=O)[C@H](Cc1c[nH]c2ccccc12)NC(=O)[C@@H](N)CCCCN)C(=O)N[C@@H](CCCCN)C(N)=O [KWLKKWLKKWLK]

MIC [18]: 9.5 µM (≈ 15.7 µg/mL) | MIC (Escherichia coli C25): 9.5 µM (≈ 15.7 µg/mL)
SMILES: CC[C@H](C)[C@H](NC(=O)CNC(=O)[C@H](CCCN=C(N)N)NC(=O)[C@@H](NC(=O)[C@@H](NC(=O)[C@H](CCCN=C(N)N)NC(=O)[C@@H](NC(=O)[C@@H](NC(=O)[C@@H](N)CCCCN)[C@@H](C)CC)[C@@H](C)CC)C(C)C)[C@@H](C)CC)C(=O)N[C@H](C(=O)N[C@@H](CCCN=C(N)N)C(=O)N[C@@H](CCCN=C(N)N)C(=O)N[C@@H](CCCN=C(N)N)C(N)=O)[C@@H](C)CC [KIIRVIRGIIRRR]

SMILES: CC[C@H](C)[C@H](NC(=O)[C@@H](NC(=O)[C@H](CCC(N)=O)NC(=O)[C@H](CCCN=C(N)N)NC(=O)[C@H](C)NC(=O)[C@H](C)NC(=O)[C@H](C)NC(=O)[C@H](Cc1c[nH]c2ccccc12)NC(=O)[C@@H](N)CCC(=O)O)C(C)C)C(=O)N[C@H](C(=O)N[C@@H](Cc1cnc[nH]1)C(=O)N[C@@H](C)C(=O)N[C@H](C(=O)N[C@@H](CCCN=C(N)N)C(=O)N[C@@H](CCCCN)C(=O)N[C@@H](Cc1ccc(O)cc1)C(=O)O)[C@@H](C)O)[C@@H](C)CC [EWAAARQVIIHATRKY]
MIC [25]: ≥ 66.9 µM | MIC [26]: ≥ 66.9 µM | MIC [27]: ≥ 66.9 µM | MIC [28]: ≥ 66.9 µM | MIC [29]: ≥ 66.9 µM | MIC [30]: ≥ 66.9 µM | MIC [31]: ≥ 66.9 µM | MIC [32]: ≥ 66.9 µM | MIC [33]: ≥ 66.9 µM | MIC [34]: ≥ 66.9 µM | MIC [35]: ≥ 66.9 µM | MIC [36]: ≥ 66.9 µM | MIC [37]: ≥ 66.9 µM | MIC [38]: ≥ 66.9 µM | MIC [39]: ≥ 66.9 µM | MIC [40]: ≥ 66.9 µM | MIC [41]: > 66.9 µM | MIC [42]: ≥ 66.9 µM | MIC [43]: ≥ 66.9 µM | MIC [44]: ≥ 33.5 µM | MIC [45]: ≥ 66.9 µM | MIC [46]: ≥ 66.9 µM | MIC [47]: ≥ 66.9 µM | MIC [48]: ≥ 66.9 µM | MIC [49]: ≥ 66.9 µM

Reference: DBAASP
